{"source": "PubChem BioAssay (NCI)", "assay_in_all_cases": "DTP human tumour cell line panel, 48 h", "key": {"[1]": {"test_system": "A549 NSCLC"}, "[2]": {"test_system": "786-0 renal"}, "[3]": {"test_system": "HCC-2998 colon"}, "[4]": {"test_system": "K-562 leukemia"}, "[5]": {"test_system": "NCI-H23 lung"}, "[6]": {"test_system": "TK-10 renal"}, "[7]": {"test_system": "IGROV1 ovarian"}, "[8]": {"test_system": "HCT-116 colon"}, "[9]": {"test_system": "MOLT-4 leukemia"}, "[10]": {"test_system": "HT29 colon"}, "[11]": {"test_system": "PC-3 prostate"}, "[12]": {"test_system": "BT-549 breast"}, "[13]": {"test_system": "DU-145 prostate"}, "[14]": {"test_system": "HCT-15 colon"}, "[15]": {"test_system": "HOP-62 NSCLC"}, "[16]": {"test_system": "MCF7 breast"}, "[17]": {"test_system": "RPMI-8226 leukemia"}, "[18]": {"test_system": "UACC-257 melanoma"}, "[19]": {"test_system": "EKVX NSCLC"}, "[20]": {"test_system": "SK-MEL-28 melanoma"}, "[21]": {"test_system": "SF-539 CNS"}, "[22]": {"test_system": "SN12C renal"}, "[23]": {"test_system": "MDA-MB-231 breast"}, "[24]": {"test_system": "COLO 205 colon"}, "[25]": {"test_system": "NCI-H226 lung"}, "[26]": {"test_system": "OVCAR-5 ovarian"}, "[27]": {"test_system": "MDA-MB-435"}, "[28]": {"test_system": "HS 578T breast"}, "[29]": {"test_system": "A498 renal"}}, "note": "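Cultured in 96-well plates, cells were exposed to test compound for 48 hours across five concentrations. At the GI50, growth is halved. TGI: total growth inhibition.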"}
{"smiles": "O=C(c1ccc2ccccc2c1)c1c(C(F)(F)F)n([O-])c2ccc(C(F)(F)F)cc2[n+]1=O", "values": [{"measurement": "GI50", "setting": "[1]", "value": 1680, "unit": "nM"}, {"measurement": "TGI", "setting": "[1]", "value": 3.48, "unit": "µM"}, {"measurement": "GI50", "setting": "[2]", "value": 1290, "unit": "nM"}, {"measurement": "TGI", "setting": "[2]", "value": 2680, "unit": "nM"}, {"measurement": "GI50", "setting": "[3]", "value": 1690, "unit": "nM"}, {"measurement": "TGI", "setting": "[3]", "value": 3.27, "unit": "µM"}, {"measurement": "GI50", "setting": "[4]", "value": 608, "unit": "nM"}, {"measurement": "TGI", "setting": "[4]", "value": 1140, "unit": "nM"}, {"measurement": "GI50", "setting": "[5]", "value": 3.4, "unit": "µM"}, {"measurement": "TGI", "setting": "[5]", "value": 10.2, "unit": "µM"}, {"measurement": "GI50", "setting": "[6]", "value": 1670, "unit": "nM"}, {"measurement": "TGI", "setting": "[6]", "value": 3.07, "unit": "µM"}, {"measurement": "GI50", "setting": "[7]", "value": 270, "unit": "nM"}, {"measurement": "TGI", "setting": "[7]", "value": 815, "unit": "nM"}, {"measurement": "GI50", "setting": "[8]", "value": 498, "unit": "nM"}, {"measurement": "TGI", "setting": "[8]", "value": 1160, "unit": "nM"}, {"measurement": "GI50", "setting": "[9]", "value": 441, "unit": "nM"}, {"measurement": "TGI", "setting": "[9]", "value": 1620, "unit": "nM"}, {"measurement": "GI50", "setting": "[10]", "value": 439, "unit": "nM"}, {"measurement": "TGI", "setting": "[10]", "value": 1430, "unit": "nM"}, {"measurement": "GI50", "setting": "[11]", "value": 407, "unit": "nM"}, {"measurement": "TGI", "setting": "[11]", "value": 1420, "unit": "nM"}, {"measurement": "GI50", "setting": "[12]", "value": 278, "unit": "nM"}, {"measurement": "TGI", "setting": "[12]", "value": 751, "unit": "nM"}, {"measurement": "GI50", "setting": "[13]", "value": 738, "unit": "nM"}, {"measurement": "TGI", "setting": "[13]", "value": 2000, "unit": "nM"}, {"measurement": "GI50", "setting": "[14]", "value": 732, "unit": "nM"}, {"measurement": "TGI", "setting": "[14]", "value": 2070, "unit": "nM"}, {"measurement": "GI50", "setting": "[15]", "value": 1950, "unit": "nM"}, {"measurement": "TGI", "setting": "[15]", "value": 3.58, "unit": "µM"}, {"measurement": "GI50", "setting": "[16]", "value": 392, "unit": "nM"}, {"measurement": "TGI", "setting": "[16]", "value": 1560, "unit": "nM"}, {"measurement": "GI50", "setting": "[17]", "value": 864, "unit": "nM"}, {"measurement": "TGI", "setting": "[17]", "value": 2880, "unit": "nM"}, {"measurement": "GI50", "setting": "[18]", "value": 1520, "unit": "nM"}, {"measurement": "TGI", "setting": "[18]", "value": 3.12, "unit": "µM"}, {"measurement": "GI50", "setting": "[19]", "value": 1540, "unit": "nM"}, {"measurement": "TGI", "setting": "[19]", "value": 3.2, "unit": "µM"}, {"measurement": "GI50", "setting": "[20]", "value": 1480, "unit": "nM"}, {"measurement": "TGI", "setting": "[20]", "value": 2860, "unit": "nM"}, {"measurement": "GI50", "setting": "[21]", "value": 1560, "unit": "nM"}, {"measurement": "TGI", "setting": "[21]", "value": 2970, "unit": "nM"}, {"measurement": "GI50", "setting": "[22]", "value": 1390, "unit": "nM"}, {"measurement": "TGI", "setting": "[22]", "value": 3.3, "unit": "µM"}, {"measurement": "GI50", "setting": "[23]", "value": 1480, "unit": "nM"}, {"measurement": "TGI", "setting": "[23]", "value": 2950, "unit": "nM"}, {"measurement": "GI50", "setting": "[24]", "value": 724, "unit": "nM"}, {"measurement": "TGI", "setting": "[24]", "value": 1830, "unit": "nM"}, {"measurement": "GI50", "setting": "[25]", "value": 1060, "unit": "nM"}, {"measurement": "TGI", "setting": "[25]", "value": 3.35, "unit": "µM"}, {"measurement": "GI50", "setting": "[26]", "value": 992, "unit": "nM"}, {"measurement": "TGI", "setting": "[26]", "value": 4.2, "unit": "µM"}, {"measurement": "GI50", "setting": "[27]", "value": 1750, "unit": "nM"}, {"measurement": "TGI", "setting": "[27]", "value": 3.35, "unit": "µM"}, {"measurement": "GI50", "setting": "[28]", "value": 1440, "unit": "nM"}, {"measurement": "TGI", "setting": "[28]", "value": 3.97, "unit": "µM"}, {"measurement": "GI50", "setting": "[29]", "value": 757, "unit": "nM"}, {"measurement": "TGI", "setting": "[29]", "value": 1970, "unit": "nM"}]}
